# Measured values published in ChEMBL document CHEMBL1147424, “TMC-95A, a reversible proteasome inhibitor, induces neurite outgrowth in PC12 cells” (2004).
# Tested on: PC-12
# Assay: Neuritogenic activity of compound in PC12 rat pheochromocytoma cells was evaluated at dose of 20 uM; Positive neurite initiation after 16 hour incubation
# Type: functional
compound,measurement,value
C/C=C\NC(=O)C1NC(=O)[C@H](CC(N)=O)NC(=O)[C@@H](NC(=O)C(=O)[C@@H](C)CC)Cc2ccc(O)c(c2)-c2cccc3c2NC(=O)[C@@]3(O)[C@@H]1O (stereo partly specified),Activity,60%
